According to patent US9242992B2, “Crystal form of tricyclic benzopyran compound and production method thereof” (NISSAN CHEMICAL INDUSTRIES, LTD., priority 2009, dated 2016):

How the values were obtained:
Format in all cases: physicochemical
[1] = Specific surface area by BET method (nitrogen adsorption); conditions: for Specific surface area: BET, adsorption temperature 77K, equilibrium time 300 seconds
Protocol: [Measurement conditions] adsorption temperature: 77K, adsorption equilibrium time: 300 seconds
[Measured value unit] square meter/gram
The measurement was performed by the BET method using the nitrogen adsorption in liquid nitrogen after a pre-treatment in refluxed liquid nitrogen.

[2] = Acceleration test (total impurities by HPLC); conditions: for Increase of impurities in acceleration test (in words) / Total amount of impurities by HPLC, measured value after test: 40° C., 75% RH, 6 months, air-tight container; for Total amount of impurities by HPLC, initial value: Test Example 2, before the acceleration test
Protocol: The A-, B- and E-form crystals of Compound (1) were subjected to an acceleration test. The conditions for the test were as follows.
Acceleration test: 40° C., 75% RH, 6 months, in an air-tight container
(§1) In addition, the stability of the crystals was evaluated by the degree of increase of the total amount of impurities by HPLC analysis.

[3] = Solubility, Japanese Pharmacopoeia dissolution test in JP2 pH 6.8; conditions: for Solubility: JP2, pH 6.8, 60 minutes, 10 mg in 500 mL, 37° C.
Protocol: The solubility and the specific surface area of the A-form, B-form, E-form and F-form crystals of Compound (1) were examined.
[Measurement conditions] JP2, pH 6.8 (3.40 g of potassium dihydrogen phosphate and 3.55 g of anhydrous disodium hydrogen phosphate is dissolved in water to obtain 1 liter of solution. The 1 volume of the solution is mixed with the 1 volume of water to obtain JP2, pH 6.8.), 60 minutes
according to the Japanese Pharmacopoeia fifteenth edition, dissolution test (Protocol of the dissolution test; sample amount: 10 mg, test solution: JP2, pH 6.8, 500 mL, sampling point: 5, 15, 30, 60 min, paddle rotational speed: […], bath temperature: 37° C.)

[4] = Water adsorption analysis; conditions: 25° C., sample 0.2 g, pre-treatment 60° C. 20 hours
Protocol: The A-, B- and E-form crystals of Compound (1) were evaluated by water adsorption analysis.
[Measurement conditions] sample amount: 0.2 g; pre-treatment: 60° C., 20 hours; temperature 25° C., Volumetric adsorption apparatus (trade name: BELSORP 18 manufactured by BEL Japan, Inc.) was used.

[5] = High-temperature XRD measurement
Protocol: The A-form and B-form crystals of Compound (1) were subjected to the high-temperature XRD measurement.
As shown in FIG. 8 and FIG. 9, there was observed no change until 100° C. in the powder X-ray diffractogram of the A-form crystal and until 60° C. in the powder X-ray diffractogram of the B-form crystal.

[6] = Thermostability, humidity stability and photostability tests (total impurities by HPLC); conditions: for Total amount of impurities by HPLC, initial value: Test Example 1, before the stability tests
Protocol: The thermostability, humidity stability and photostability of the A-, B- and F-form crystals of Compound (1) were examined.
The conditions for each test were as follows.
Thermostability test: 60° C., humidity was not controlled, 2 weeks, in air-tight container
Humidity stability test: 25° C., 90% RH, 2 weeks, in opened container
Photostability test: 200 W/m^2·hr, 25° C., 60% RH, 57 hours, in opened container
as §1

Specific surface area [1] | Increase of impurities in acceleration test (in words) [2] | Total amount of impurities by HPLC, measured value after test [2] | Total amount of impurities by HPLC, initial value [2] | Solubility [3] | Adsorption of water (in words) [4] | Temperature until which no change was observed in the powder X-ray diffractogram [5] | Total amount of impurities by HPLC, initial value [6] | Specific surface area (in words) ([1]; BET method) | Increase of impurities under the conditions (in words) ([6]; thermostability, humidity stability and photostability tests) | Solubility in the JP2 solution (in words) ([3]; JP2, pH 6.8) | Adsorption of water (in words) ([4]; listed as A-form) | SMILES
0.3 square meter/gram | no increase of impurities | 0.64% | 0.64% | 23% | no adsorption of water | – | – | – | – | – | – | Cc1cc(CO)nc2cc3c(cc12)OC(C)(C)[C@H](O)[C@H]3NCCc1ccccc1 [E-form crystal, (3R,4S)-7-hydroxymethyl-2,2,9-trimethyl-4-(phenethylamino)-3,4-dihydro-2H-pyrano[2,3-g]quinolin-3-ol]
– | – | – | – | 30% | – | – | 0.25% | – | – | – | – | Cc1cc(CO)nc2cc3c(cc12)OC(C)(C)[C@H](O)[C@H]3NCCc1ccccc1 [F-form crystal, (3R,4S)-7-hydroxymethyl-2,2,9-trimethyl-4-(phenethylamino)-3,4-dihydro-2H-pyrano[2,3-g]quinolin-3-ol]
0.7 square meter/gram | no increase of impurities | 0.80% | 0.70% | 36% | less than that on E-form crystal | 100 °C | 0.84% | high value | no increase of impurities | high solubility | no adsorption of water | Cc1cc(CO)nc2cc3c(cc12)OC(C)(C)[C@H](O)[C@H]3NCCc1ccccc1 [A-form crystal, (3R,4S)-7-hydroxymethyl-2,2,9-trimethyl-4-(phenethylamino)-3,4-dihydro-2H-pyrano[2,3-g]quinolin-3-ol]

SMILES | Specific surface area [1] | Increase of impurities in acceleration test (in words) [2] | Total amount of impurities by HPLC, measured value after test [2] | Total amount of impurities by HPLC, initial value [2] | Solubility [3] | Adsorption of water (in words) [4] | Temperature until which no change was observed in the powder X-ray diffractogram [5] | Total amount of impurities by HPLC, initial value [6] | Specific surface area (in words) ([1]; BET method) | Increase of impurities under the conditions (in words) ([6]; thermostability, humidity stability and photostability tests) | Solubility in the JP2 solution (in words) ([3]; JP2, pH 6.8) | Adsorption of water (in words) ([4]; listed as A-form)
Cc1cc(CO)nc2cc3c(cc12)OC(C)(C)[C@H](O)[C@H]3NCCc1ccccc1 [B-form crystal, (3R,4S)-7-hydroxymethyl-2,2,9-trimethyl-4-(phenethylamino)-3,4-dihydro-2H-pyrano[2,3-g]quinolin-3-ol] | 0.3 square meter/gram | – | 1.15% | 0.42% | 27% | the adsorption of water was observed, the adsorption was reversible | 60 °C | 0.55% | – | – | – | –
